One series has as its target LCK tyrosine kinase (Homo sapiens, UniProt P06239, C224D/P223M). Description: LCK spectrophotometric assay. Format: biochemical. The settings on record: Table 1; compound concentration 1 µM; read-out: Lck-P* (% inhibition). On the procedure: The spectrophotometric assay was carried out as described above for VEGF-R2, except for the following changes in concentration: LCK = 60 nM, MgCl2 = 0 mM, poly(E4Y1) = 20 mM.

A further series has as its target T1, human CHK1 (FL-CHK1) (Homo sapiens, UniProt O14757).
T1 construct: C-terminally His-tagged full-length human CHK1 (FL-CHK1) was expressed using the baculovirus/insect cell system; made in house; host or cells: baculovirus/insect cell system
T1 sequence (O14757 1-476): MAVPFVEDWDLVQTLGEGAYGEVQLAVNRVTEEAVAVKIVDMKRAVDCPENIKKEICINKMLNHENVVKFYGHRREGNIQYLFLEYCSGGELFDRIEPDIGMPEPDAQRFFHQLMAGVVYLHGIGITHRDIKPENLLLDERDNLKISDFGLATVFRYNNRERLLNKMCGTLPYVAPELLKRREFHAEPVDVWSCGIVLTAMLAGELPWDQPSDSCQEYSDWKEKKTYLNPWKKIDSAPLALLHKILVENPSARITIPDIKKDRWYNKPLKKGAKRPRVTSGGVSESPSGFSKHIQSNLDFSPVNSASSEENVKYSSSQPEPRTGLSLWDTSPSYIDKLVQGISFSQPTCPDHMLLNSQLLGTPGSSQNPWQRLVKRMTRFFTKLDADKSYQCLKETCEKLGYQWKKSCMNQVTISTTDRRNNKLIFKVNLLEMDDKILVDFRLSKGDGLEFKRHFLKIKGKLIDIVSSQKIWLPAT
Put plainly: CHK1 coupled spectrophotometric assay. In kind it is biochemical. The settings on record: read-out: CHK -1* (% inhibition). A digest of the protocol:
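His-tagged full-length human CHK1 from baculovirus/insect cells, 10 nM, phosphorylating Syntide-2. ADP formation coupled via PK/LDH with PEP to NADH oxidation, followed as absorbance decrease at 340 nm. Ki from initial rates at varying compound concentrations.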

The next series addresses CDK2/Cyclin A complex (Homo sapiens, UniProt P24941). Description: CDK2/Cyclin A assay ([32P]ATP incorporation into Rb fragment). Particulars: read-out: CDK2 * (% inhibition). In kind it is biochemical.
The target of another series is T2, human FAK (FAKcd409) (Homo sapiens, UniProt Q05397, P410T).
T2 construct: comprises residues methionine 409 to glutamate 689; made in house; host or cells: baculovirus vector expression system (insect cells)
Put plainly: FAK fluorescence polarization assay. In kind it is biochemical. The settings on record: Table 5; 1 µM; read-out: % Inhibition @ 1 µM FAK. On the procedure:
FAK Construct for Assay. The catalytic domain of human FAK (FAKcd409) was expressed using the baculovirus vector expression system. […] The protein was purified using classical chromatography techniques.
FAK HTS utilized the fluorescence polarization assay provided by LJL Biosystems. The kinase reaction contained: 100mM Hepes pH 7.5, 10mM MgCl2, 1mM DTT, 1mM ATP, and 1mg/ml poly Glu-Tyr (4: 1). The reaction is initiated by the addition of 5nM FAKcd409. The reaction is terminated by the addition of EDTA followed by addition of fluor-labelled peptide and anti-phosphotyrosine antibody, both provided by LJL Biosystems. Inhibition results are read on a Analyst (LJL) detector.

Series [1] addresses T3, phosphorylated Tie-2 (aa 775-1122) (Homo sapiens, UniProt Q02763).
T3 construct: 4 to 12 nM phosphorylated Tie-2 (aa 775-1122); made in house; host or cells: insect cells
Put plainly: TIE-2 spectrophotometric assay. In kind it is biochemical. The settings on record: Table 5; 1 µM; bold values spectrophotometric assay, non-bolded DELFIA assay (bold not visible here); read-out: % Inhibition @ 1 µM Tie2-P. A digest of the protocol: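 Human phosphorylated Tie-2 kinase activity was measured spectrophotometrically by coupling ADP formation, from phosphoryl transfer to poly(Glu4 Tyr), to NADH oxidation via pyruvate kinase and lactate dehydrogenase. Absorbance loss at 340 nm was read on a Beckman DU650. Reactions held 1 mM phosphoenolpyruvate, 0.24 mM NADH, 40 mM MgCl2, 5 mM DTT, 0.5 mM ATP, and 15 units/mL each of PK and LDH in 100 mM HEPES, pH 7.5.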

The test system of series [2] is human umbilical vein endothelial cells (HUVEC). Put plainly: HUVEC proliferation assay (VEGF-stimulated, MTT). Format: cell-based. The settings on record: Homo sapiens, HUVEC, Table 1.
A short description of a further series: in vitro. Particulars: human liver microsomes, 5 µM test compound, 37 °C, 2 h. Format: in vitro ADME, human. A digest of the protocol:
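HLM diluted to 5 mg/mL in 100 mM KPO4, preincubated 10 min at 37 °C with NADPH-regenerating system. Compound (5 µM final) incubated at 37 °C in triplicate, sampled at 0 and 2 h into ice-cold acetonitrile, then LC-MS analysis.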

A further series deals with CDK4/Cyclin D3 complex (Homo sapiens, UniProt P11802). Put plainly: biochemical. Particulars: read-out: CDK4 * (% inhibition).
The next series concerns the target CDK1 (Homo sapiens, UniProt P06493). Put plainly: CDK1 assay (Table 3). In kind it is biochemical. Particulars: compound concentration 1 µM, NI = no significant inhibition.
The next series addresses human FGF-R1 (Homo sapiens, UniProt P11362, C488A/C584S/L457V). Description: FGF-R spectrophotometric assay. In kind it is biochemical. The settings on record: Table 1; compound concentration 1 µM; read-out: FGF-P* (% inhibition). On the procedure: The spectrophotometric assay was carried out as described above for VEGF-R2, except for the following changes in concentration: FGF-R = 50 nM, ATP = 2 mM, and poly(E4Y1) =15 mM.

Series [3] deals with phosphorylated VEGF-R2Δ50 (Homo sapiens, UniProt P35968, DEL940-989/E990V). Description: biochemical. Particulars: read-out: FLVK -P** (% inhibition).
Series [4] addresses unphosphorylated VEGF-R2Δ50 (Homo sapiens, UniProt P35968, DEL940-989/E990V). Description: biochemical. Particulars: read-out: FLVK* (% inhibition).
Setting [5] is: + albumin, read-out: HUVEC + albumin IC50.
[6] abbreviates: Table 3, read-out: CDK1* (% inhibition).

SMILES strings stand for the structures. Read-outs that look alike come from different tables or passages of the source.

CDK4/Cyclin D3 complex, sequence (P11802 whole entry): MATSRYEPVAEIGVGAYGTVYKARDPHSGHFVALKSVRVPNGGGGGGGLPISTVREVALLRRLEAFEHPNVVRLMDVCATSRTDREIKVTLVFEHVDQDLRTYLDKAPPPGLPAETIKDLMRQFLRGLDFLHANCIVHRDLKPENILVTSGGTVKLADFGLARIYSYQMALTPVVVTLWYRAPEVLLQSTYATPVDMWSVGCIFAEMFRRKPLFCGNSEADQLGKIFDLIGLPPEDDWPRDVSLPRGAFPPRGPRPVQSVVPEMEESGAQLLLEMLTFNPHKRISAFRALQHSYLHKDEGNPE
CDK4/Cyclin D3 complex, sequence (P30281 whole entry partner): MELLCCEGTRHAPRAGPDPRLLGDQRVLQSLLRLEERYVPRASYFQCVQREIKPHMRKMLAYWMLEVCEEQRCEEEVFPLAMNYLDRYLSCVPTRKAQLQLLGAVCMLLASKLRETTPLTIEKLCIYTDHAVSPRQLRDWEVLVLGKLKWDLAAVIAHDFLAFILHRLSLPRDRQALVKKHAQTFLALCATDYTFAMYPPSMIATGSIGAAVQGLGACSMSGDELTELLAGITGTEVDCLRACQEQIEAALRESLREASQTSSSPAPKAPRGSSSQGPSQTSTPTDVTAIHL
T3 sequence (Q02763 775-1122): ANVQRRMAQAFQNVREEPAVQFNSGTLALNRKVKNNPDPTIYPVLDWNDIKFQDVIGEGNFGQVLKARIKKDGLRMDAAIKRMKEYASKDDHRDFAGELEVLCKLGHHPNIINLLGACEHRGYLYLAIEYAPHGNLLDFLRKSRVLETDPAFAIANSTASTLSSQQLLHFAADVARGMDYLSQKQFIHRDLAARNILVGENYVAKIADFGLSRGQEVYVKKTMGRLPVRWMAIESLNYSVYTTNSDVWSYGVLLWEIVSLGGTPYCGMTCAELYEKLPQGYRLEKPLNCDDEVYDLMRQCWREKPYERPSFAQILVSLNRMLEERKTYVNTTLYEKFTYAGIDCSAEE
LCK tyrosine kinase, sequence (P06239 223-509 P223M/C224D): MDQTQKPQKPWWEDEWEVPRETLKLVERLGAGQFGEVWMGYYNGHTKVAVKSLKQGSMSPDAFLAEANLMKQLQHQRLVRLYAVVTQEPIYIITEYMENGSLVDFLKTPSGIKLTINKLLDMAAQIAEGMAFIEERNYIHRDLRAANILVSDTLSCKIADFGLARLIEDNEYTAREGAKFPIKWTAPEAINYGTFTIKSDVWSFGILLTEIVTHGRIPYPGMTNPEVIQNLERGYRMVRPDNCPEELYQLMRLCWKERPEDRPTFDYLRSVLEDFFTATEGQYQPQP
CDK1, sequence (P06493 whole entry, species assumed): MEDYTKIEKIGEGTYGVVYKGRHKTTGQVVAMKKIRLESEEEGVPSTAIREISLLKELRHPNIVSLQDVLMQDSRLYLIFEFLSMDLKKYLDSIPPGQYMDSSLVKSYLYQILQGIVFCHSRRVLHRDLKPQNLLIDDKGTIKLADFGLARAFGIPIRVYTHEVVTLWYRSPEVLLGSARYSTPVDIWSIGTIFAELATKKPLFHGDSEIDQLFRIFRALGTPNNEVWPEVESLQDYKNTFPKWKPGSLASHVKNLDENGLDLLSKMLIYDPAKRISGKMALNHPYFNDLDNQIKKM
CDK1, sequence (P14635 whole entry partner, species assumed): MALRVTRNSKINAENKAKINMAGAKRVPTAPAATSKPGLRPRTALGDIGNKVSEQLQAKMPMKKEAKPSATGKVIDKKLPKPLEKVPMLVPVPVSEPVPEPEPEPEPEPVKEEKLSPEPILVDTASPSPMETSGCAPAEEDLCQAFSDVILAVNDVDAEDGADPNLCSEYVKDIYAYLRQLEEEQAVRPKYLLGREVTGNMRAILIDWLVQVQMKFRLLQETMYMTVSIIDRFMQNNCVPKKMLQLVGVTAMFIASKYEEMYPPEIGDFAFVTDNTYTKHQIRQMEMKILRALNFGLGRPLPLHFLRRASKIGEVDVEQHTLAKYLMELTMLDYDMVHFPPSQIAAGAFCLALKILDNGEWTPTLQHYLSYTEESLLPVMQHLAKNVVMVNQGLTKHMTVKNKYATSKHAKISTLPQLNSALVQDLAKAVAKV
T2 sequence (Q05397 409-689 P410T): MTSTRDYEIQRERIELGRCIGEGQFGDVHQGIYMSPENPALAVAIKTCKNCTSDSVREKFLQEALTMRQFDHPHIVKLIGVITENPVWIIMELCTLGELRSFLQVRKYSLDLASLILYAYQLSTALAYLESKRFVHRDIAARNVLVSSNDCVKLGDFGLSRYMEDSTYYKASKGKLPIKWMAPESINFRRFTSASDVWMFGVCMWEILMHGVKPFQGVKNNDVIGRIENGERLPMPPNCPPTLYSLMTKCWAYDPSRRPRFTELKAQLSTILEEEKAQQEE
phosphorylated VEGF-R2Δ50, sequence (P35968 with tags, fused parts or gaps DEL940-989/E990V limits assumed): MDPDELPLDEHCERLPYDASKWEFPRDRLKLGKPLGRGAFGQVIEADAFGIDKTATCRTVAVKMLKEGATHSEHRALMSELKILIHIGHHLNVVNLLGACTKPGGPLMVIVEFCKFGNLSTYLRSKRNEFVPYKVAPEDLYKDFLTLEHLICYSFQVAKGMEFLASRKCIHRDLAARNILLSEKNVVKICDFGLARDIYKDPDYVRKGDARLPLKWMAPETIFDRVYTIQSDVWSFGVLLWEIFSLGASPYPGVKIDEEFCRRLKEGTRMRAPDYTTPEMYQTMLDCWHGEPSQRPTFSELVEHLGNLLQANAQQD
human FGF-R1, sequence (P11362 456-766 L457V/C488A/C584S): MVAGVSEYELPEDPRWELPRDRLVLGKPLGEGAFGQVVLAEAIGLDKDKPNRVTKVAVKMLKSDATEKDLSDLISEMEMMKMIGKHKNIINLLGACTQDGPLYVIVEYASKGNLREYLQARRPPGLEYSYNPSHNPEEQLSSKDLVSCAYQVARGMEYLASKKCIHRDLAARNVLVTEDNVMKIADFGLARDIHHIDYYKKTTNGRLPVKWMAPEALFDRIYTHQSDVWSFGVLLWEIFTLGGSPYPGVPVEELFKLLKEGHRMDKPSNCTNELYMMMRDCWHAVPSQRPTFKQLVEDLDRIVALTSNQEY
unphosphorylated VEGF-R2Δ50, sequence (P35968 with tags, fused parts or gaps DEL940-989/E990V limits assumed): as the sequence (P35968 with tags, fused parts or gaps DEL940-989/E990V limits assumed) above

For `Cc1cc(C(=O)Nc2cccc(C(=O)c3ccc4c(/C=C/c5ccccn5)n[nH]c4c3)c2)n(C)n1` [Reference Example 41(p), 6-[3-((1,3-Dimethyl-1H-pyrazol-5-yl)carboxamido)benzoyl]-3-E-[2-(pyridin-2-yl)ethenyl]-1H-indazole], the inhibition at 1 µM turned out to be 49% at LCK tyrosine kinase; 0% at human CHK1 (FL-CHK1); 6% on CDK2/Cyclin A complex; 9% on human FAK (FAKcd409); 49% in [1]; 3% at CDK4/Cyclin D3 complex. Further, the 50% inhibitory concentration (IC50) was determined as 2.6 nM in series [2] (setting [5]) and 0.27 nM in [2] (read-out: HUVEC IC50). Moreover, the “% remain (HLM, 2 h)” value in “in vitro” is given as 62%.
`Oc1ccc(-c2ccc3c(/C=C/c4ccccc4)n[nH]c3c2)cc1O` [Reference Example 28(d), 6-(3,4-dihydroxyphenyl)-3-E-styryl-1H-indazole]: the inhibition at 1 µM at CDK2/Cyclin A complex stood at 66%; at CDK1 (setting [6]), 93%; at CDK4/Cyclin D3 complex it was 87%.
In the case of `Clc1ccc(/C=C/c2n[nH]c3cc(-c4ccncc4)ccc23)cc1` [Reference Example 29(c)], the inhibition at 1 µM at CDK1 (read-out: CDK1* (% inhibition), Table 3) is 56%.
Regarding `CCOc1cc(-c2ccc3c(/C=C/c4ccccc4)n[nH]c3c2)ccc1O` [Reference Example 27(h), 6-[3-ethoxy-4-hydroxyphenyl]-3-E-styryl-1H-indazole], the inhibition at 1 µM at CDK1 (setting [6]) worked out at 84%.
Still for that read-out and setting: as for `Cc1nc(/C=C/c2n[nH]c3cc(-c4ccncc4)ccc23)cs1` [Reference Example 29(j), 6-pyrid-4-yl-3-E-[2-(2-methylthiazol-4-yl)ethenyl]-1H-indazole], the figure is 31%.
As for `CCn1nc(C)cc1C(=O)Nc1cc(Nc2ccc3c(/C=C/c4ccccn4)n[nH]c3c2)c(F)cc1C` [Example 48(a), 6-[N.(S-((1-Ethyl-3-methyl-1H-pyrazol-5-yl)carboxamido)-2-fluoro-4-methylphenyl)amino]-3-E-[2-(pyridin-2-yl)ethenyl]-1H-indazole], the inhibition at 1 µM was determined as 13% at LCK tyrosine kinase; 0% on human CHK1 (FL-CHK1); 0% at CDK2/Cyclin A complex; 11% at human FAK (FAKcd409); 52% in [1]. In addition, in the series “in vitro”, the “% remain (HLM, 2 h)” value was found to be 55%.
As for `OCCOc1cc(-c2ccc3c(/C=C/c4ccccc4)n[nH]c3c2)ccc1O` [Reference Example 27(i), 6-[3-(2-hydroxyethoxy)-4-hydroxyphenyl]-3-E-styryl-1H-indazole], the inhibition at 1 µM at CDK2/Cyclin A complex is 73%; at CDK1 (setting [6]), 85%; on CDK4/Cyclin D3 complex, 92%.
For the molecule `O=C(Nc1ccc(O)cc1)c1ccc2c(-c3nc4ccc5ccccc5c4[nH]3)n[nH]c2c1` [Example 54(e), 3-[1H-Naphtho(1,2-d)imidazol-2-yl]-N-(4-hydroxyphenyl)-1H-indazole-6-carboxamide], on CDK1 (Table 3), the “CDK1* (% inhibition)” value is given as “Nl @ 1µM”.
For the molecule `C=CCn1nc(C)cc1C(=O)Nc1cccc(C(=O)c2ccc3c(/C=C/c4ccccn4)n[nH]c3c2)c1` [Reference Example 41(t), 6-[3-((1-Allyl-3-methyl-1H-pyrazol-5-yl)carboxamido)benzoyl]-3-E-[2-(pyridin-2-yl)ethenyl]-1H-indazole], the inhibition at 1 µM is 85% at human FGF-R1; 51% on LCK tyrosine kinase; 0% at human CHK1 (FL-CHK1); 1% on CDK2/Cyclin A complex; 9% at human FAK (FAKcd409); 51% in series [1]. For the same molecule, the inhibition at 1 µM on CDK4/Cyclin D3 complex was 2%. For the same molecule, the concentration for half-maximal inhibition (IC50) in series [2] (setting [5]) worked out at 3.8 nM. In “in vitro”, the “% remain (HLM, 2 h)” value is on record as 87%.
For the molecule `O=C(Nc1ccc(O)cc1)c1ccc2c(-c3nc4cc(F)c(F)cc4[nH]3)n[nH]c2c1` [Example 54(a), 3-(5,6-Difluoro-1H-benzoimidazol-2-yl)-N-(4-hydroxyphenyl)-1H-indazole-6-carboxamide], on CDK1 (setting [6]), the inhibition at 1 µM is 1%.
Turning to `O=C(Nc1ccc(N2CCNCC2)c(C(F)(F)F)c1)c1ccccc1Sc1ccc2c(/C=C/c3ccccc3)n[nH]c2c1` [Reference Example 38(b), 6-[2-((4-piperizin-1-yl-3-trifluoromethylphenyl)carbamoyl)phenylsulfanyl]-3-E-(2-styryl)-1H-indazole], the IC50 in series [2] (read-out: HUVEC IC50) was found to be 79 nM. In addition, in series [3], the inhibition at 0.05 µM stood at 72%.
Turning to `CC(C)(C)c1ccc2[nH]c(-c3n[nH]c4cc(C(=O)Nc5ccc(O)cc5)ccc34)nc2c1` [Example 54(g), 3-(5-tert-Butyl-1H-benzoimidazol-2-yl)-N-(4-hydroxyphenyl)-1H-indazole-6-carboxamide], the inhibition at 1 µM at CDK1 (setting [6]) is 3%.
Consider `Oc1cccc(-c2ccc3c(/C=C/c4ccccc4)n[nH]c3c2)c1` [Reference Example 28(a), 6-(3-hydrophenyl)-3-E-styryl-1H-indazole], for which the inhibition at 1 µM came to 75% at CDK2/Cyclin A complex, 77% at CDK1 (setting [6]), 84% in series [4] and 79% at CDK4/Cyclin D3 complex.
On to `O=C(Cc1cc(F)cc(F)c1)Nc1cccc(C(=O)c2ccc3c(/C=C/c4ccccn4)n[nH]c3c2)c1` [Reference Example 41(f), 6-[3-(3,5-difluorophenylacetamido)benzoyl]-3-E-[2-(pyridin-2-yl)ethenyl]-1H-indazole], for which the inhibition at 1 µM is 92% on human FGF-R1 and 65% on LCK tyrosine kinase. Also, the “% remain (HLM, 2 h)” value in the series “in vitro” was determined as 59%. The inhibition at 0.05 µM in series [3] came to 84%.
As to `Fc1cc(F)cc(/C=C/c2n[nH]c3cc(-c4ccncc4)ccc23)c1` [Reference Example 29(m), 6-pyrid-4-yl-3-E-[2-(3,5-difluorophenyl)ethenyl]-1H-indazole], the inhibition at 1 µM on CDK1 (setting [6]) was determined as 54%.
On the same count and under the same terms, as for `FC(F)(F)Oc1cccc(/C=C/c2n[nH]c3cc(-c4ccncc4)ccc23)c1` [Reference Example 29(p), 6-pyrid-4-yl-3-E-[2-(3-trfluorometboxyphenyl)ethenyl]-1H-indazole], the figure is 6%; as for `NC(=O)c1ccc2c(-c3nc4ccccc4[nH]3)n[nH]c2c1` [Example 53(e), 3-(1H-Benzoimidazol-2-yl)-1H-indazole-6-carboxamide], 13%.

The values above are taken from patent publication EP1614683B1, “Indazole compounds and pharmaceutical compositions for inhibiting protein kinases, and methods for their use” (priority 1999, dated 2001).
